Results as given in PubChem BioAssay (NCI).
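Assay format: 96-well plates, 48-hour exposure. The concentration for full growth arrest is given as TGI.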

Legend:
Experiment in all cases: NCI-60 cell line screen, 48 h
PC-3 prostate = tested on: PC-3 prostate
OVCAR-8 ovarian = tested on: OVCAR-8 ovarian
K-562 leukemia = tested on: K-562 leukemia
SK-OV-3 ovarian = tested on: SK-OV-3 ovarian
MDA-MB-435 = tested on: MDA-MB-435
T-47D breast = tested on: T-47D breast
A498 renal = tested on: A498 renal
NCI-H23 lung = tested on: NCI-H23 lung
EKVX NSCLC = tested on: EKVX NSCLC
COLO 205 colon = tested on: COLO 205 colon
UACC-62 melanoma = tested on: UACC-62 melanoma
HS 578T breast = tested on: HS 578T breast
TK-10 renal = tested on: TK-10 renal
UO-31 renal = tested on: UO-31 renal
SK-MEL-2 melanoma = tested on: SK-MEL-2 melanoma
MDA-MB-231 breast = tested on: MDA-MB-231 breast
SK-MEL-5 melanoma = tested on: SK-MEL-5 melanoma
SF-295 CNS = tested on: SF-295 CNS
HCT-15 colon = tested on: HCT-15 colon
DU-145 prostate = tested on: DU-145 prostate
HOP-62 NSCLC = tested on: HOP-62 NSCLC
A549 NSCLC = tested on: A549 NSCLC
SF-268 CNS = tested on: SF-268 CNS
IGROV1 ovarian = tested on: IGROV1 ovarian
HOP-92 NSCLC = tested on: HOP-92 NSCLC
ACHN renal = tested on: ACHN renal
SNB-75 CNS = tested on: SNB-75 CNS
OVCAR-4 ovarian = tested on: OVCAR-4 ovarian
OVCAR-5 ovarian = tested on: OVCAR-5 ovarian
HT29 colon = tested on: HT29 colon
SK-MEL-28 melanoma = tested on: SK-MEL-28 melanoma
SN12C renal = tested on: SN12C renal
U251 CNS = tested on: U251 CNS
MCF7 breast = tested on: MCF7 breast
SW-620 colon = tested on: SW-620 colon
MDA-N = tested on: MDA-N
UACC-257 melanoma = tested on: UACC-257 melanoma
CAKI-1 renal = tested on: CAKI-1 renal
M14 melanoma = tested on: M14 melanoma
BT-549 breast = tested on: BT-549 breast
SF-539 CNS = tested on: SF-539 CNS
RXF 393 renal = tested on: RXF 393 renal
RPMI-8226 leukemia = tested on: RPMI-8226 leukemia
NCI-H522 lung = tested on: NCI-H522 lung
SNB-19 CNS = tested on: SNB-19 CNS
NCI-H226 lung = tested on: NCI-H226 lung
786-0 renal = tested on: 786-0 renal
HCC-2998 colon = tested on: HCC-2998 colon
HCT-116 colon = tested on: HCT-116 colon
NCI-H460 lung = tested on: NCI-H460 lung
MOLT-4 leukemia = tested on: MOLT-4 leukemia
SR leukemia = tested on: SR leukemia
OVCAR-3 ovarian = tested on: OVCAR-3 ovarian
MALME-3M melanoma = tested on: MALME-3M melanoma
NCI/ADR-RES ovarian = tested on: NCI/ADR-RES ovarian
KM12 colon = tested on: KM12 colon
LOX IMVI melanoma = tested on: LOX IMVI melanoma
HL-60(TB) leukemia = tested on: HL-60(TB) leukemia
CCRF-CEM leukemia = tested on: CCRF-CEM leukemia

Measured: TGI

C=CCCC1CCCNC1=S (centres undefined)
> 100 µM: PC-3 prostate | OVCAR-8 ovarian | K-562 leukemia | SK-OV-3 ovarian | MDA-MB-435 | T-47D breast | A498 renal | NCI-H23 lung | EKVX NSCLC | COLO 205 colon | UACC-62 melanoma | HS 578T breast | TK-10 renal | UO-31 renal | SK-MEL-2 melanoma | MDA-MB-231 breast | SK-MEL-5 melanoma | SF-295 CNS | HCT-15 colon | DU-145 prostate | HOP-62 NSCLC | A549 NSCLC | SF-268 CNS | IGROV1 ovarian | HOP-92 NSCLC | ACHN renal | SNB-75 CNS | OVCAR-4 ovarian | OVCAR-5 ovarian | HT29 colon | SK-MEL-28 melanoma | SN12C renal | U251 CNS | MCF7 breast | SW-620 colon | MDA-N | UACC-257 melanoma | CAKI-1 renal | M14 melanoma | BT-549 breast | SF-539 CNS | RXF 393 renal | RPMI-8226 leukemia | NCI-H522 lung | SNB-19 CNS | NCI-H226 lung | 786-0 renal | HCC-2998 colon | HCT-116 colon | NCI-H460 lung

c1ccc(CNCCN2CCNCC2)nc1
> 100 µM: PC-3 prostate | OVCAR-8 ovarian | K-562 leukemia | SK-OV-3 ovarian | MDA-MB-435 | T-47D breast | A498 renal | NCI-H23 lung | EKVX NSCLC | MOLT-4 leukemia | COLO 205 colon | UACC-62 melanoma | HS 578T breast | TK-10 renal | UO-31 renal | SK-MEL-2 melanoma | MDA-MB-231 breast | SR leukemia | SK-MEL-5 melanoma | SF-295 CNS | HCT-15 colon | OVCAR-3 ovarian | HOP-62 NSCLC | A549 NSCLC | MALME-3M melanoma | SF-268 CNS | IGROV1 ovarian | HOP-92 NSCLC | ACHN renal | SNB-75 CNS | OVCAR-4 ovarian | OVCAR-5 ovarian | NCI/ADR-RES ovarian | HT29 colon | SK-MEL-28 melanoma | SN12C renal | U251 CNS | MCF7 breast | SW-620 colon | MDA-N | UACC-257 melanoma | CAKI-1 renal | M14 melanoma | BT-549 breast | SF-539 CNS | RXF 393 renal | RPMI-8226 leukemia | NCI-H522 lung | SNB-19 CNS | KM12 colon | NCI-H226 lung | 786-0 renal | HCT-116 colon | NCI-H460 lung | LOX IMVI melanoma

C/C(=N\O)c1ccc2cc(Br)c3ccccc3c2c1
45.9 µM: EKVX NSCLC
47.5 µM: NCI/ADR-RES ovarian
35.3 µM: MALME-3M melanoma
29.7 µM: HCC-2998 colon
61.1 µM: CCRF-CEM leukemia
36.7 µM: UO-31 renal
33.3 µM: OVCAR-3 ovarian
34.7 µM: HCT-15 colon
32.1 µM: MDA-MB-231 breast
50.9 µM: RPMI-8226 leukemia
44.4 µM: NCI-H23 lung
28.7 µM: U251 CNS
32 µM: SK-MEL-2 melanoma | SK-MEL-5 melanoma
60.9 µM: OVCAR-8 ovarian
93.3 µM: T-47D breast
39.8 µM: TK-10 renal
46.6 µM: HOP-92 NSCLC
64 µM: BT-549 breast
32.6 µM: KM12 colon
69.9 µM: MDA-MB-435
41.2 µM: M14 melanoma
33 µM: NCI-H522 lung
43.2 µM: NCI-H460 lung
42.6 µM: SK-MEL-28 melanoma
46.8 µM: HOP-62 NSCLC
25.8 µM: OVCAR-5 ovarian | HCT-116 colon
35.4 µM: A498 renal
32.8 µM: LOX IMVI melanoma
> 100 µM: K-562 leukemia | SK-OV-3 ovarian | SR leukemia | DU-145 prostate | A549 NSCLC | SF-268 CNS | IGROV1 ovarian | ACHN renal | SNB-75 CNS | OVCAR-4 ovarian | SW-620 colon | CAKI-1 renal | SNB-19 CNS
37.5 µM: SF-295 CNS
20.5 µM: HT29 colon
48.3 µM: SN12C renal
33.2 µM: UACC-257 melanoma
44.7 µM: HL-60(TB) leukemia
35.2 µM: MCF7 breast
88.2 µM: HS 578T breast
43 µM: 786-0 renal
31.9 µM: RXF 393 renal
47.2 µM: UACC-62 melanoma
43.6 µM: MDA-N
